# Laboratory results published in PubChem BioAssay (NCI).
#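 1) Cells in 96-well plates. 2) Compound, 48 h, 5 concentrations. 3) Linear interpolation between surrounding doses. 4) Unreached endpoint = highest concentration. Here, GI50 denotes the concentration required for 50% inhibition of growth. TGI denotes the concentration required for complete inhibition of growth.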
# Legend:
# Experiment in all cases: growth of human tumour cells (NCI), 48 h
# M14 melanoma = system: M14 melanoma
# NCI-H23 lung = system: NCI-H23 lung
# SN12C renal = system: SN12C renal
# RXF 393 renal = system: RXF 393 renal
# CAKI-1 renal = system: CAKI-1 renal
# U251 CNS = system: U251 CNS
# OVCAR-5 ovarian = system: OVCAR-5 ovarian
# HCT-15 colon = system: HCT-15 colon
# SNB-19 CNS = system: SNB-19 CNS
# T-47D breast = system: T-47D breast
Compound,TGI (M14 melanoma) [µM],TGI (NCI-H23 lung) [µM],TGI (SN12C renal) [µM],TGI (RXF 393 renal) [µM],TGI (CAKI-1 renal) [µM],TGI (U251 CNS) [µM],TGI (OVCAR-5 ovarian) [µM],TGI (HCT-15 colon) [µM],TGI (SNB-19 CNS) [µM],GI50 (T-47D breast) [µM],TGI (T-47D breast) [µM],GI50 (M14 melanoma) [µM],GI50 (NCI-H23 lung) [nM],GI50 (RXF 393 renal) [nM],GI50 (CAKI-1 renal) [µM],GI50 (U251 CNS) [µM],GI50 (OVCAR-5 ovarian) [µM],GI50 (HCT-15 colon) [µM],GI50 (SNB-19 CNS) [µM],GI50 (SN12C renal) [µM]
COC(=O)C1C(OCc2ccccc2)C2CCC1(OC)C=C2C (stereo unspecified),> 100,> 100,> 100,> 100,> 100,> 100,> 100,> 100,> 100,,,,,,,,,,,
Fc1ccc2[nH]cc(SSc3c[nH]c4ccc(F)cc34)c2c1,> 100,77.5,,17,21.7,28,39.9,22,22.1,2.54,20.5,5.29,16700,659,3.52,3.82,12.7,2.1,5.21,
N#CC1CC2(C(=O)C1=O)c1ccccc1-c1ccccc12 (stereo unspecified),> 100,> 100,> 100,> 100,> 100,> 100,> 100,> 100,> 100,,,,,,,,,,,
COc1ccc2c(c1)/C(=N/OC(C)=O)c1c-2c(=O)[nH]c2ccccc12,27.4,16.2,31,,25.6,30.1,24.5,38.1,40.4,3,27.2,13.2,2340,,11.5,15.5,11.5,16.1,15.3,16.2
O=c1c2ccccc2nc(-c2cccc(Cl)c2)n1NCC1(O)OCC(O)C(O)C1O (stereo unspecified),> 100,> 100,> 100,> 100,> 100,> 100,> 100,> 100,> 100,,,,,,,,,,,
CC(=O)OC1Oc2ccccc2-c2oc(=O)c(-c3cc4ccccc4oc3=O)cc21 (stereo unspecified),> 100,52.4,53.8,,66.1,28.3,> 100,> 100,32.4,21.3,51.8,36.6,24000,,26.9,14.7,35,22.3,17,21.5
O=[N+]([O-])c1ccc(Cl)cc1N/N=C/c1cccc2cccnc12,> 100,> 100,> 100,> 100,> 100,> 100,,> 100,> 100,,> 100,,,,,,,,,
COc1ccc2c(c1)C1(C(=O)N2)C(C#N)=C(c2ccccc2)Nc2c1c(-c1ccccc1)nn2-c1ccccc1 (stereo unspecified),7.32,7.51,3.71,5.3,,7.12,19.8,26.8,15,2.94,12.5,2.44,2510,1930,,2.8,5.46,11,3.95,1.94
COc1ccc(N(/C=C/C(=O)C(F)(F)F)CC(=O)c2ccc(Cl)c(Cl)c2)cc1,25.6,32.3,33.5,> 100,34.7,25.3,30.2,21.4,,18.9,48.3,12.7,17500,36300,15.6,12.2,16.5,7.66,,14.5
N#Cc1ccc2c(c1)C(=O)c1c-2n(CCCN)c(=O)c2cc([N+](=O)[O-])ccc12,2.08,2.39,1.82,2.22,1.54,0.497,1.86,1.83,1.54,,,0.467,353,906,0.0285,0.0718,0.705,0.411,0.146,0.261
COc1cc(/C=C(\OC(C)=O)c2ccc3c(c2)OCO3)cc(OC)c1OC,39.4,35.4,88.1,> 100,> 100,47.4,> 100,36.9,> 100,,,,,,,,,,,
CNCCCNCCCN1C(=O)c2ccc3c4c(ccc(c24)C1=O)C(=O)N(CCCNCc1ccccc1OC)C3=O,2.79,4.12,3.41,5.71,,7.67,4.14,12.2,11.1,1.25,4.1,1.32,1260,1890,,1.61,1.25,2.36,1.68,1.46
CCOC(=O)/C(=C\c1ccc[nH]1)C(=O)c1ccccc1,> 100,> 100,> 100,> 100,> 100,> 100,> 100,> 100,> 100,,,,,,,,,,,
Cc1nc(C(N)=S)sc1C(=O)C/C(=N/N)C(=O)Nc1ccc(Cl)cc1,> 100,> 100,> 100,> 100,> 100,> 100,> 100,,> 100,,> 100,,,,,,,,,
CCOC(=O)CSc1[nH]c(NC(=S)Nc2ccccc2)c(C(N)=O)c1C(N)=O,> 10,> 10,> 10,> 10,> 10,,,> 10,,,> 10,,,,,,,,,
O=C1CS/C(=N\S(=O)(=O)c2ccc(N3N=C4c5ccccc5CC4C3c3ccc(Cl)cc3)cc2)N1c1ccccc1 (stereo unspecified),> 100,,> 100,81.3,> 100,64.8,,> 100,> 100,41.7,> 100,59.4,,29400,35.8,27.8,,34.8,23.3,37.3
COc1ccc(/C=C/NC=O)cc1,> 100,> 100,> 100,> 100,,> 100,> 100,> 100,> 100,,> 100,,,,,,,,,
